Measurements from ChEMBL document CHEMBL5291721, “A preclinical secondary pharmacology resource illuminates target-adverse drug reaction associations of marketed drugs” (Nat Commun, 2023).

Assays:
[1] = target: T1, Equilibrative nucleoside transporter 1 (Homo sapiens, UniProt Q99808)
T1 sequence (Q99808 whole entry): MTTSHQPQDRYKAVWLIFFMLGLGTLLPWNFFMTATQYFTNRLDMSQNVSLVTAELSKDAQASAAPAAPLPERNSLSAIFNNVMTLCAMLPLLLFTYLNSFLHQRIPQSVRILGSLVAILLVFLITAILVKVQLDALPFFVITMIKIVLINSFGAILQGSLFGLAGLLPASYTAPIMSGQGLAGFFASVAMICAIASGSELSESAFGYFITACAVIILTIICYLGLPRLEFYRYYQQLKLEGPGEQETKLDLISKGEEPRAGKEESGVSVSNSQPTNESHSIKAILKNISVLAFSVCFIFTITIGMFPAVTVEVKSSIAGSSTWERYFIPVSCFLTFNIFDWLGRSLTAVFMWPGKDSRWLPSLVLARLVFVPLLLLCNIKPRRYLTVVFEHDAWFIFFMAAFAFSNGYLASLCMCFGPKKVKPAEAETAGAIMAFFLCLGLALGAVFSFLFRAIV

[2] = target: Neuronal acetylcholine receptor subunit alpha-4 (Homo sapiens, UniProt P43681)
[3] = target: T2, Type-1 angiotensin II receptor (Homo sapiens, UniProt P30556)
T2 sequence (P30556 whole entry): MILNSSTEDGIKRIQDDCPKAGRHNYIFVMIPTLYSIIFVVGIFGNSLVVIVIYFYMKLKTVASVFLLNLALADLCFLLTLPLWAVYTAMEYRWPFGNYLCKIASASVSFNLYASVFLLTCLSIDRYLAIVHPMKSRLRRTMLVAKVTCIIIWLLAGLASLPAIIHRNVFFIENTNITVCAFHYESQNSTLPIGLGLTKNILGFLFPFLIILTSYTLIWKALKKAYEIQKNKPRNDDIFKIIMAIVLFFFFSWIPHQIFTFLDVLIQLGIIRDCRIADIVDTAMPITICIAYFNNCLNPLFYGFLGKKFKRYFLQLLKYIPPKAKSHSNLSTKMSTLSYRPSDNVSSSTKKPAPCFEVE

[4] = target: Sodium-dependent noradrenaline transporter (Homo sapiens, UniProt P23975)
[5] = target: 5-hydroxytryptamine receptor 2B (Homo sapiens, UniProt P41595); format: functional, cell-based
[6] = target: T3, Alpha-2C adrenergic receptor (Homo sapiens, UniProt P18825); format: functional
T3 sequence (P18825 whole entry): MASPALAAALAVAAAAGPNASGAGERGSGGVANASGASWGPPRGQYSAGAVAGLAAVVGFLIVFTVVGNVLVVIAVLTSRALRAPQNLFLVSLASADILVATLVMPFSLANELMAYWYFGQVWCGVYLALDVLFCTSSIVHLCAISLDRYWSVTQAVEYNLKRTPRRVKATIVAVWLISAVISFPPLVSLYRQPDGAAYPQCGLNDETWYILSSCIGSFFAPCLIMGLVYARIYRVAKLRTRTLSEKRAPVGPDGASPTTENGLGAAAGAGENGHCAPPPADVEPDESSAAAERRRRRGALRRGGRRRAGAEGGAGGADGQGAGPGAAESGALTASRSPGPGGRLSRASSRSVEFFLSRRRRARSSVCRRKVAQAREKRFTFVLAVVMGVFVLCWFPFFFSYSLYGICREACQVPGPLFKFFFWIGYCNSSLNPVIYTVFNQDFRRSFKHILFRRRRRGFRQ

[7] = target: 3',5'-cyclic-AMP phosphodiesterase 4D (Homo sapiens, UniProt Q08499); format: functional
[8] = target: T4, Alpha-2A adrenergic receptor (Homo sapiens, UniProt P08913); format: functional, cell-based
T4 sequence (P08913 whole entry): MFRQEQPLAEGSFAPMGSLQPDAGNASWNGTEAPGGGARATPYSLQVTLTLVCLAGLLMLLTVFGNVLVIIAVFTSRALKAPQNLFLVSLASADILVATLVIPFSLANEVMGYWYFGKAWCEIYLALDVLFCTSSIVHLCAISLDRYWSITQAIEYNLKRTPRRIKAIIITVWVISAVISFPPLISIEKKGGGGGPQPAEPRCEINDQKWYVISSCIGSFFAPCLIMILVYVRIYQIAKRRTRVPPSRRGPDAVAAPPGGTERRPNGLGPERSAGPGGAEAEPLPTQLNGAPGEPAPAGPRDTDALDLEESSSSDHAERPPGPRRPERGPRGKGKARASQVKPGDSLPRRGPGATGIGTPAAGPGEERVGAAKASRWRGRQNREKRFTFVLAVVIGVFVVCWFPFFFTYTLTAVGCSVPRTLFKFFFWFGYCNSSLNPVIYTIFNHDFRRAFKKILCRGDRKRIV

[9] = target: cGMP-inhibited 3',5'-cyclic phosphodiesterase 3A (Homo sapiens, UniProt Q14432); format: functional
[10] = target: T5, 5-hydroxytryptamine receptor 3A (Homo sapiens, UniProt P46098); format: functional
T5 sequence (P46098 whole entry): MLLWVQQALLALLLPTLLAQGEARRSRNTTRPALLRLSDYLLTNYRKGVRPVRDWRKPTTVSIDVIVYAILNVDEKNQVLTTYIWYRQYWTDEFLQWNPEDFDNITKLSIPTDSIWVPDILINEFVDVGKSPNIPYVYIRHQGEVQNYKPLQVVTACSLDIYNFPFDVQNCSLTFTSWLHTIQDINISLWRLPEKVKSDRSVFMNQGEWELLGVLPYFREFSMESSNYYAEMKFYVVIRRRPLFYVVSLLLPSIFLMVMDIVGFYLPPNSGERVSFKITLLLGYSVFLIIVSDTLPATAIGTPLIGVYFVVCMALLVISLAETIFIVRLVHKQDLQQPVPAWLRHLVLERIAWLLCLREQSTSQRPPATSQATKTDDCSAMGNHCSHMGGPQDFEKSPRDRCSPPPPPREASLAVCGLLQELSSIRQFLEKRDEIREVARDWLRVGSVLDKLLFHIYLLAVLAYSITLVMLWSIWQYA

D(3) dopamine receptor = D(3) dopamine receptor (Homo sapiens, UniProt P35462)
[11] = target: Voltage-gated inwardly rectifying potassium channel KCNH2 (Homo sapiens, UniProt Q12809); format: functional; conditions: read-out: AC50
Adenosine receptor A2a = Adenosine receptor A2a (Homo sapiens, UniProt P29274)
[12] = target: Gamma-aminobutyric acid receptor subunit alpha-1 (Rattus norvegicus, UniProt P62813); format: functional
Melanocortin receptor 3 = Melanocortin receptor 3 (Homo sapiens, UniProt P41968)
Motilin receptor = Motilin receptor (Homo sapiens, UniProt O43193)
Note: assay procedure not described here.

Motilin receptor, sequence (O43193 whole entry): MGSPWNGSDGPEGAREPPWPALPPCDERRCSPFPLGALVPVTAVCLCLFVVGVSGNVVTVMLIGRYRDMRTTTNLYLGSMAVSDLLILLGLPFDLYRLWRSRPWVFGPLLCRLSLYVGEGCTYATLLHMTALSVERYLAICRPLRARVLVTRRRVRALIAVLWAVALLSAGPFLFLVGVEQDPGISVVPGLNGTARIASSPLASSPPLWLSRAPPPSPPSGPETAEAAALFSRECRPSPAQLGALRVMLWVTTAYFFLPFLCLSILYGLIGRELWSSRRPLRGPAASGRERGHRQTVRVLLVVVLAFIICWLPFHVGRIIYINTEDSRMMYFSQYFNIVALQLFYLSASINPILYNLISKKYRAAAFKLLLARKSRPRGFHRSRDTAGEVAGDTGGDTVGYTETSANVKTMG
D(3) dopamine receptor, sequence (P35462 whole entry): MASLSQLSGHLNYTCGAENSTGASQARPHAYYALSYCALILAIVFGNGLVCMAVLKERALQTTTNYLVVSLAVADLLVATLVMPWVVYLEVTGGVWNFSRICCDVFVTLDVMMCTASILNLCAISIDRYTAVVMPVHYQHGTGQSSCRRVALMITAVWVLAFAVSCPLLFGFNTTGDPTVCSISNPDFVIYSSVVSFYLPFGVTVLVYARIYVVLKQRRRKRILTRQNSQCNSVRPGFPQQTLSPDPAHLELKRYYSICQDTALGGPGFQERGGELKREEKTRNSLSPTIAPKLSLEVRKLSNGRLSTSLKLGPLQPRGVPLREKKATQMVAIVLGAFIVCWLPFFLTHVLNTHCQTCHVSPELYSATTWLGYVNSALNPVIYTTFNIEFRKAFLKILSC
Gamma-aminobutyric acid receptor subunit alpha-1, sequence (P62813 whole entry): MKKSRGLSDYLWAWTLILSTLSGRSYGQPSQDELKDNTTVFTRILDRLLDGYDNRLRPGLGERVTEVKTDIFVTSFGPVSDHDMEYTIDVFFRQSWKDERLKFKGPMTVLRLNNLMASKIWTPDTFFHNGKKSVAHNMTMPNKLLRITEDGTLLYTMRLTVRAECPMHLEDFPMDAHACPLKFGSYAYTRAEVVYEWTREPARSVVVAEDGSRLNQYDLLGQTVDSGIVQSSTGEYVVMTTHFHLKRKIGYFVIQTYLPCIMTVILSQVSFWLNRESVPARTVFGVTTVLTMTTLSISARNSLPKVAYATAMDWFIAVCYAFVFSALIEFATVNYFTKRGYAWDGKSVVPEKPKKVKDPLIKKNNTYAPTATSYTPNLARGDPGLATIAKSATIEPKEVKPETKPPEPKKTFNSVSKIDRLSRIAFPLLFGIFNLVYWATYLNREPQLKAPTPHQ
5-hydroxytryptamine receptor 2B, sequence (P41595 whole entry): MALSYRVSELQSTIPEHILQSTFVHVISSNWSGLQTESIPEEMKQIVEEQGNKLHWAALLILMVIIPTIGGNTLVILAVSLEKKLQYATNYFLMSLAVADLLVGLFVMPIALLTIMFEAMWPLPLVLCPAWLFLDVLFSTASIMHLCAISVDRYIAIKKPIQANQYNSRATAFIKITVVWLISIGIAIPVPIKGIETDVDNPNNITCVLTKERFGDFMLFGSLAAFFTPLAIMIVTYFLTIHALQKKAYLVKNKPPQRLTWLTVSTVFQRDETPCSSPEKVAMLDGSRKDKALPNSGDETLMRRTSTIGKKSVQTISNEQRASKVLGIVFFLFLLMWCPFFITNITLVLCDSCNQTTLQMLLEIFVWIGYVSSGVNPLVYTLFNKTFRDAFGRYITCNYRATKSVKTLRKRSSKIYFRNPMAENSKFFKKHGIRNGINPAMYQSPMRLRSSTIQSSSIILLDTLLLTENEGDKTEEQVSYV
Sodium-dependent noradrenaline transporter, sequence (P23975 whole entry): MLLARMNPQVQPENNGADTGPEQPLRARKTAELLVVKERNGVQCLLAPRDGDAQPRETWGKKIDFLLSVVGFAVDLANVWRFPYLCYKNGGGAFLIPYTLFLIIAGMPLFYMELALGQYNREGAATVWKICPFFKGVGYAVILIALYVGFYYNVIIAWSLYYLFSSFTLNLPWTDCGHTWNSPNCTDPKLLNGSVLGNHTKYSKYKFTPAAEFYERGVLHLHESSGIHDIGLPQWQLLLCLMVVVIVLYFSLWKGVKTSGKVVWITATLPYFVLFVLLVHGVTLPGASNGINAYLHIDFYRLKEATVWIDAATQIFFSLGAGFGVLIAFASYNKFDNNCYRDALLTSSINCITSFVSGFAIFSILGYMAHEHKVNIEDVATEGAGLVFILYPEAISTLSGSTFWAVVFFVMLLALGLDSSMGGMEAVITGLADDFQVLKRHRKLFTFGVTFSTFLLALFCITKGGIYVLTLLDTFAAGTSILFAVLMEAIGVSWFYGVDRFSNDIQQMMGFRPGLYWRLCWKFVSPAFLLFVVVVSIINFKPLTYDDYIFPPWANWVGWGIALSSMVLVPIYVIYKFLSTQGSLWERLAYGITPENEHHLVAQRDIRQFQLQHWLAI
Melanocortin receptor 3, sequence (P41968 whole entry): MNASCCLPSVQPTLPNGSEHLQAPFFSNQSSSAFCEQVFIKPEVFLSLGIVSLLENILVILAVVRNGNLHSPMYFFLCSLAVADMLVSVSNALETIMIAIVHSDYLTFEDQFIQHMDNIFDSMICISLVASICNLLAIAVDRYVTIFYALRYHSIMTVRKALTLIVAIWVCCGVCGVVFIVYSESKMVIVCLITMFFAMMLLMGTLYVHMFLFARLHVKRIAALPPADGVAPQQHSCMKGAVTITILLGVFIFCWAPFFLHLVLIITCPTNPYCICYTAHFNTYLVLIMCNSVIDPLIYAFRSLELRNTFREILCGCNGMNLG
Neuronal acetylcholine receptor subunit alpha-4, sequence (P43681 whole entry): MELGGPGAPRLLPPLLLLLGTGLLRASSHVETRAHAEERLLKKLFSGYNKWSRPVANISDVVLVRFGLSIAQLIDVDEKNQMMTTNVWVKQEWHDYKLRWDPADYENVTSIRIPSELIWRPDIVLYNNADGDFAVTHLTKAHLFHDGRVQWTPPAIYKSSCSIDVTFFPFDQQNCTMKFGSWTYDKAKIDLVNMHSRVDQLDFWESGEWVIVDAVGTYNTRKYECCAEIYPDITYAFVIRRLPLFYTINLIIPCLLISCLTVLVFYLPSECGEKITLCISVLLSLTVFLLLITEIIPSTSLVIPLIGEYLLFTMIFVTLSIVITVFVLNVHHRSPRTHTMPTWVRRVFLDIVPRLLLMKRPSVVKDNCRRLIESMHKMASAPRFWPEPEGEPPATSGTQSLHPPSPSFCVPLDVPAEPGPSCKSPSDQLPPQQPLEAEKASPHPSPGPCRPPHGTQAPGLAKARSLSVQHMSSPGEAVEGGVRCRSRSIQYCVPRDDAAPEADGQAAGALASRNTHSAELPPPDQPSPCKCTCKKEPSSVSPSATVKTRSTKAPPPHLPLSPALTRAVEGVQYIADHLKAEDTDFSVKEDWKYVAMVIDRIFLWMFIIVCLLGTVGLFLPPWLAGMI
3',5'-cyclic-AMP phosphodiesterase 4D, sequence (Q08499 whole entry): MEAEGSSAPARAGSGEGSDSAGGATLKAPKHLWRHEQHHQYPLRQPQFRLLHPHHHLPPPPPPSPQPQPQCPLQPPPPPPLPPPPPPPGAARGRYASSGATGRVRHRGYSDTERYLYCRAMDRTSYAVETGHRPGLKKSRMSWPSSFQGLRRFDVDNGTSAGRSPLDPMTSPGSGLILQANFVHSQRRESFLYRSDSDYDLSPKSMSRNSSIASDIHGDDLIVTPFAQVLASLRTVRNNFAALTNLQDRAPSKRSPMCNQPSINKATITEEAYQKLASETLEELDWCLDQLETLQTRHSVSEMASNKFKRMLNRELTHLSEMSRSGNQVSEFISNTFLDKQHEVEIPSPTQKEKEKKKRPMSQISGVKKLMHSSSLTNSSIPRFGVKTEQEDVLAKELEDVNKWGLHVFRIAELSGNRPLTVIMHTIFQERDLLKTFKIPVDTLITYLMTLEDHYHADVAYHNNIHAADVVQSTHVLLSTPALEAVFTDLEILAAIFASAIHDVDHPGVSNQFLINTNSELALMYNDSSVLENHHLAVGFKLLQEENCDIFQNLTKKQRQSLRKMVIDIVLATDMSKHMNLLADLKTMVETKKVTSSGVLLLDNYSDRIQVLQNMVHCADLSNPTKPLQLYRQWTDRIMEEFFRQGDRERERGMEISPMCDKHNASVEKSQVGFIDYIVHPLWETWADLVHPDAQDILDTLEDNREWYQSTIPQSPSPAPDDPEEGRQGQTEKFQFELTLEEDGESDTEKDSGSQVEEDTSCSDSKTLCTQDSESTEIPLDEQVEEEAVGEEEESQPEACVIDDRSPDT
Adenosine receptor A2a, sequence (P29274 whole entry): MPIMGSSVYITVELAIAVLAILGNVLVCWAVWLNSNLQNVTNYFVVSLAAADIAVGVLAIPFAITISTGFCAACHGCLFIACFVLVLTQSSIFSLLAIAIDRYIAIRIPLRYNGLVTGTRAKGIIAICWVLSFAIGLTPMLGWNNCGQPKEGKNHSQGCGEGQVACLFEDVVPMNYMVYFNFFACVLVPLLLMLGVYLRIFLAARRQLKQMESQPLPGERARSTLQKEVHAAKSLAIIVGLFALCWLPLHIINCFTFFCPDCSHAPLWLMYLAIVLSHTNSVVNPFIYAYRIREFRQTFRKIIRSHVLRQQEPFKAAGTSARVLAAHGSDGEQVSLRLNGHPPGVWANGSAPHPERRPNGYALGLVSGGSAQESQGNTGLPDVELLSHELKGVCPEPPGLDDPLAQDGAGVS

Structure (SMILES) | AC50 [1] | AC50 [2] | AC50 [3] | AC50 [4] | AC50 [5] | AC50 [6] | AC50 [7] | AC50 [8] | AC50 [9] | AC50 [10] | AC50 (D(3) dopamine receptor) | AC50 (Adenosine receptor A2a) | AC50 [12] | AC50 (Melanocortin receptor 3) | AC50 (Motilin receptor) | AC50 [11]
CO/N=C(\C(=O)N[C@@H]1C(=O)N2C(C(=O)[O-])=C(C[N+]3(C)CCCC3)CS[C@H]12)c1csc(N)n1 | > 300 µM | > 300 µM | > 300 µM | > 300 µM | > 300 µM | > 300 µM | > 300 µM | > 300 µM | > 300 µM | > 300 µM | > 300 µM | > 300 µM | > 300 µM | > 300 µM | > 300 µM | > 300 µM
Nc1nc(N)c2nc(-c3ccccc3)c(N)nc2n1 | > 30 µM | > 30 µM | > 30 µM | > 30 µM | > 30 µM | > 30 µM | 24 µM | > 30 µM | > 30 µM | > 30 µM | > 30 µM | > 30 µM | > 30 µM | > 30 µM | > 30 µM | > 30 µM
C[C@H]1O[C@H](O[C@H]2[C@H](O)[C@@H](O)[C@@H](O[C@H]3[C@H](O)[C@@H](O)C(O)O[C@@H]3CO)O[C@@H]2CO)[C@H](O)[C@@H](O)[C@@H]1N[C@H]1C=C(CO)[C@@H](O)[C@H](O)[C@H]1O (stereo partly specified) [ACARBOSE] | > 30 µM | > 30 µM | > 30 µM | > 30 µM | > 30 µM | > 10 µM | > 30 µM | > 30 µM | > 30 µM | > 10 µM | > 10 µM | > 30 µM | > 10 µM | > 30 µM | > 30 µM | > 30 µM
Oc1ncnc2[nH]ncc12 [ALLOPURINOL] | > 30 µM | > 10 µM | > 30 µM | > 10 µM | > 10 µM | > 10 µM | > 30 µM | > 10 µM | > 30 µM | > 30 µM | > 10 µM | > 30 µM | > 10 µM | > 30 µM | > 10 µM | > 30 µM
CC(C)NCC(O)COc1ccc(COCCOC(C)C)cc1 (stereo unspecified) [BISOPROLOL] | > 30 µM | > 10 µM | > 30 µM | > 10 µM | > 10 µM | > 10 µM | > 30 µM | > 10 µM | > 30 µM | > 10 µM | > 30 µM | > 30 µM | > 10 µM | > 30 µM | > 10 µM | > 30 µM
O=C(O)c1cc(-c2ccc(F)cc2F)ccc1O [DIFLUNISAL] | > 10 µM | > 10 µM | > 10 µM | > 10 µM | > 10 µM | > 10 µM | > 30 µM | > 10 µM | > 30 µM | > 30 µM | > 30 µM | > 10 µM | > 10 µM | > 10 µM | > 10 µM | > 30 µM
COC(=O)[C@@H]1CC2=CC(=O)CC[C@]2(C)[C@@]23O[C@@H]2C[C@@]2(C)[C@@H](CC[C@@]24CCC(=O)O4)[C@H]13 [EPLERENONE] | > 30 µM | > 30 µM | > 30 µM | > 30 µM | > 30 µM | > 30 µM | > 30 µM | > 30 µM | > 30 µM | > 30 µM | > 30 µM | > 30 µM | > 10 µM | > 30 µM | > 30 µM | > 30 µM

More lines, main results first:

AC50 [1] | AC50 [2] | AC50 [3] | AC50 [4] | AC50 [5] | AC50 [6] | AC50 [7] | AC50 [8] | AC50 [9] | AC50 [10] | AC50 (D(3) dopamine receptor) | AC50 (Adenosine receptor A2a) | AC50 [12] | AC50 (Melanocortin receptor 3) | AC50 (Motilin receptor) | Structure (SMILES) | AC50 [11]
> 30 µM | > 10 µM | > 30 µM | > 10 µM | > 10 µM | > 10 µM | > 10 µM | > 10 µM | > 10 µM | > 10 µM | > 10 µM | > 30 µM | > 10 µM | > 30 µM | > 10 µM | CCOC(=O)[C@H](CCc1ccccc1)N[C@@H](C)C(=O)N1CCC[C@H]1C(=O)O | > 30 µM
> 30 µM | > 30 µM | > 30 µM | 17 µM | > 30 µM | 0.72 µM | > 30 µM | > 30 µM | > 30 µM | > 30 µM | 0.0044 µM | > 30 µM | > 30 µM | > 30 µM | 27 µM | CC(=O)c1ccc2c(c1)N(CCCN1CCN(CCO)CC1)c1ccccc1S2 [ACETOPHENAZINE] | 2.3 µM
> 30 µM | > 30 µM | > 10 µM | > 30 µM | > 10 µM | > 10 µM | > 30 µM | > 10 µM | > 30 µM | > 30 µM | > 30 µM | > 30 µM | > 10 µM | > 30 µM | 6.4 µM | COC(=O)N[C@H](C(=O)N[C@@H](Cc1ccccc1)[C@@H](O)CN(Cc1ccc(-c2ccccn2)cc1)NC(=O)[C@@H](NC(=O)OC)C(C)(C)C)C(C)(C)C [ATAZANAVIR] | > 30 µM
> 30 µM | > 30 µM | > 30 µM | > 30 µM | > 30 µM | > 30 µM | > 30 µM | > 30 µM | > 30 µM | > 30 µM | > 30 µM | > 30 µM | > 30 µM | > 30 µM | > 30 µM | N[C@@H](C(=O)N[C@@H]1C(=O)N2C(C(=O)O)=C(Cl)CS[C@H]12)c1ccccc1 [CEFACLOR ANHYDROUS] | > 30 µM
